The target in one data set is T1, GST-ΔPH-Akt1 (Homo sapiens, UniProt P31749).
T1 construct: named GST-deltaPH-Akt1; 107480aa; cloned in the pAcG1 vector; made in house; host or cells: SF9 insect cells (pAcG1 vector), co-expressed with PDK1
The data set can be described thus: Biochemical ΔPH Akt1 assay (flashplate, 33P-ATP, histone 2B). The conditions noted are these: GST-ΔPH-Akt1, histone 2B substrate, 100 nM ATP, 80 minutes at 30° C.; read-out: Akt inhibition: IC50 (inhibition of deltaPHAkt1). From the text:
For the biochemical assay ΔPHAkt1 was used devoid of its PH domain as a GST fusion protein (named GST-deltaPH-Akt1; 107480aa; cloned in the pAcG1 vector (BD Biosciences Pharmingen)), co-expressed with PDK1 in SF9 insect cells. The protein was purified using glutathion-affinity chromatography by standard protocols.
In order to study the inhibition of Akt according to the invention, a flashplate-based assay has been developed.
The Akt1 assay is a biochemical assay using Akt1 devoid of its PH domain and co-expressed with PDK1 in insect cells. The GST-ΔPH-Akt1 assay is run in 96 well plates by incubating 100 ng/well GST-ΔPH-Akt1, 100 ng/well histone 2B (Roche, #223514) as substrate, 10 μl of compound of invention (test compounds were dissolved as 10 mM solutions in dimethylsulfoxide (DMSO) and subsequently diluted) and 100 nM ATP (including ^33P-ATP) in 100 μl of reaction buffer ([…], pH7.5; 3 mM MgCl2; 3 mM MnCl2; 3 μM Na-Orthovanadat; 1 mM DTT; 1 μg/ml PEG8000) for 80 minutes at 30° C. The reactions are terminated by adding 100 μl stopping buffer (2% H3PO4 for 5 minutes) and are washed 3 times by using washing buffer (0.9% NaCl). Relying on the incorporation of ^33P into the protein substrate histone 2B, the detection is based on the adhesion of the phosphorylated protein to the surface of scintillator-coated flash plates (NEN, USA; #SMP-200). This phosphorylation is measured by counting the plate for 60 sec. using a plate reader (Wallac Microbeta; Perkin Elmer, USA). The analysis of the data is performed using a biostatistical program (GraphPad Prism, USA).

Here are results for 27 molecules from patent US7879853B2, “4,6-disubstituted pyrimidines and their use as protein kinase inhibitors” (Bayer Schering Pharma AG, priority 2004, dated 2011).

Usually melting point stands for the temperature, or range, at which the solid turns liquid.

T1 sequence (P31749 107-480 limits assumed, stated change not applied): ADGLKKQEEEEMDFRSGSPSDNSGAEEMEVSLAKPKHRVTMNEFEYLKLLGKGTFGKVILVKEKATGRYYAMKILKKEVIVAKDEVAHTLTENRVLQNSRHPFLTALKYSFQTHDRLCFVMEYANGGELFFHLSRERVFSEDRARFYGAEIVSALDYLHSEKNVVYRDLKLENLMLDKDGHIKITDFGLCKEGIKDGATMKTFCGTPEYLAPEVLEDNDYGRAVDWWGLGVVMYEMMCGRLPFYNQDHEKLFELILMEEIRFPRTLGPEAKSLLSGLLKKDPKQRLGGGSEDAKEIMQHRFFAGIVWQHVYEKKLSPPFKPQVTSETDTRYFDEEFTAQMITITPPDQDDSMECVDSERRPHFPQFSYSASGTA

Regarding `NCc1cncc(C(=O)Nc2ccc(Nc3cc(-c4cccc5c4oc4ccccc45)ncn3)cc2)c1` [Compound 74, 5-Aminomethyl-N-[4-(6-dibenzofuran-4-yl-pyrimidin-4-ylamino)-phenyl]-nicotinamide], the melting point was 184 °C (dec.). The IC50 on GST-ΔPH-Akt1 is at most 5 µM. For `O=C(Nc1ccc(Nc2cc(-c3cccc4c3oc3ccccc34)ncn2)cc1)c1ccc(Cl)c(Cl)c1` [Compound 9, 3,4-Dichloro-N-[4-(6-dibenzofuran-4-yl-pyrimidin-4-ylamino)-phenyl]-benzamide], in that order: 317 to 321 °C and at most 5 µM. For `Nc1ccc(C(=O)Nc2cccc(Nc3cc(-c4cccc5c4oc4ccccc45)ncn3)c2)cc1.O=C(O)C(F)(F)F` [Compound 62, 4-Amino-N-[3-(6-dibenzofuran-4-yl-pyrimidin-4-ylamino)-phenyl]-benzamide trifluoroacetate], in that order: 185 to 188 °C and at most 5 µM. On the same counts, the results for `CN(C)c1ccc(C(=O)Nc2cccc(Nc3cc(-c4cccc5c4oc4ccccc45)ncn3)c2)cc1` [Compound 42, N-[3-(6-Dibenzofuran-4-yl-pyrimidin-4-ylamino)-phenyl]-4-dimethylamino-benzamide] are over 250 °C and at most 5 µM. On to `NCc1ccc(C(=O)Nc2ccc(Nc3cc(-c4cccc5c4oc4ccccc45)ncn3)cc2)c(F)c1` [Compound 72, 4-Aminomethyl-N-[4-(6-dibenzofuran-4-yl-pyrimidin-4-ylamino)-phenyl]-2-fluorobenzamide], for which the melting point was > 200 °C (dec.). Besides, the IC50 at GST-ΔPH-Akt1 is at most 5 µM. For `Cc1ccc(NC(=O)c2ccc(CN)cc2)cc1Nc1cc(-c2cccc3c2oc2ccccc23)ncn1.O=C(O)C(F)(F)F` [Compound 67, 4-Aminomethyl-N-[3-(6-dibenzofuran-4-yl-pyrimidin-4-ylamino)-4-methyl-phenyl]-benzamide trifluoroacetate], in that order: 180 to 185 °C and at most 5 µM.

`CC(C)(C)OC(=O)Nc1ccc(CC(=O)Nc2ccc(Nc3cc(-c4cccc5c4oc4ccccc45)ncn3)cc2)cc1` [Compound 21, tert-Butyl N-(4-{[4-(6-dibenzofuran-4-yl-pyrimidin-4-ylamino)-phenylcarbamoyl]-methyl}-phenyl)-carbamate] yielded a melting point of over 320 °C. Still for that read-out and setting: with `CC(C)(C)c1ccc(C(=O)Nc2ccc(Nc3cc(-c4cccc5c4oc4ccccc45)ncn3)cc2)cc1` [Compound 8, 4-tert-Butyl-N-[4-(6-dibenzofuran-4-yl-pyrimidin-4-ylamino)-phenyl]-benzamide] the figure was 261 to 263 °C. Regarding `CC(C)(C)OC(=O)Nc1cccc(C(=O)Nc2cccc(Nc3cc(-c4cccc5c4oc4ccccc45)ncn3)c2)c1` [Compound 28, tert-Butyl {3-[3-(6-dibenzofuran-4-yl-pyrimidin-4-ylamino)-phenylcarbamoyl]-phenyl}-carbamate], the melting point lay in the range of 160 to 163 °C. Molecule `CC(C)(C)OC(=O)NCCc1ccc(C(=O)Nc2cccc(Nc3cc(-c4cccc5c4oc4ccccc45)ncn3)c2)cc1` [Compound 26, tert-Butyl N-(2-{4-[3-(6-dibenzofuran-4-yl-pyrimidin-4-ylamino)-phenylcarbamoyl]-phenyl}-ethyl)-carbamate] displayed a melting point of 239 to 241 °C. Still for that read-out and setting: with `COCCC(CCOC)c1cccc(C(=O)Nc2ccc(Nc3cc(-c4cccc5c4oc4ccccc45)ncn3)cc2)c1` [Compound 16, N-[4-(6-Dibenzofuran-4-yl-pyrimidin-4-ylamino)-phenyl]-3-[3-methoxy-1-(2-methoxyethyl)-propyl]-benzamide] the figure was 186 to 188 °C. The same measure, in the same setting: to `Nc1cccc(C(=O)Nc2cccc(Nc3cc(-c4cccc5c4oc4ccccc45)ncn3)c2)c1.O=C(O)C(F)(F)F` belongs 150 to 153 °C.

Turning to `N#Cc1ccc(C(=O)Nc2ccc(Nc3cc(-c4cccc5c4oc4ccccc45)ncn3)cc2)cc1` [Compound 46, 4-Cyano-N-[4-(6-dibenzofuran 4-yl-pyrimidin-4-ylamino)-phenyl]-benzamide], the IC50 on GST-ΔPH-Akt1 is at most 5 µM.

`NCCc1ccc(C(=O)Nc2cccc(Nc3cc(-c4cccc5c4oc4ccccc45)ncn3)c2)cc1.O=C(O)C(F)(F)F` [Compound 58, 4-(2-Amino-ethyl)-N-[3-(6-dibenzofuran-4-yl-pyrimidin-4-ylamino)-phenyl]-benzamide trifluoroacetate] had a melting point of 87 to 90 °C.

`CN(C)c1ccccc1C(=O)Nc1ccc(Nc2cc(-c3cccc4c3oc3ccccc34)ncn2)cc1` [Compound 5, N-[4-(6-Dibenzofuran-4-yl-pyrimidin-4-ylamino)-phenyl]-2-dimethylamino-benzamide] registered a melting point of 246 to 249 °C.

For `Nc1ccccc1C(=O)Nc1ccc(Nc2cc(-c3cccc4c3oc3ccccc34)ncn2)cc1.O=C(O)C(F)(F)F` [Compound 50, 2-Amino-N-[4-(6-dibenzofuran-4-yl-pyrimidin-4-ylamino)-phenyl]-benzamide trifluoroacetate], the melting point lay in the range of 136 to 138 °C. Still for that read-out and setting: to `CN(C)c1cccc(C(=O)Nc2cccc(Nc3cc(-c4cccc5c4oc4ccccc45)ncn3)c2)c1` [Compound 48, N-[3-(6-Dibenzofuran-4-yl-pyrimidin-4-ylamino)-phenyl]-3-dimethylamino-benzamide] belongs 245 to 251 °C. Same read-out and setting: with `NCc1cc(C(=O)Nc2ccc(Nc3cc(-c4cccc5c4oc4ccccc45)ncn3)cc2)ccn1.O=C(O)C(F)(F)F` [Compound 65, 2-Aminomethyl-N-[4-(6-dibenzofuran-4-yl-pyrimidin-4-ylamino)-phenyl]-isonicotinamide trifluoroacetate] the figure was 248 to 250 °C; with `CN(C)c1cccc(C(=O)Nc2ccc(Nc3cc(-c4cccc5c4oc4ccccc45)ncn3)cc2)c1` [Compound 10, N-[4-(6-Dibenzofuran-4-yl-pyrimidin-4-ylamino)-phenyl]-3-dimethylamino-benzamide], 225 to 232 °C; with `CC(C)(C)OC(=O)Nc1ccc(C(=O)Nc2cccc(Nc3cc(-c4cccc5c4oc4ccccc45)ncn3)c2)cc1` [Compound 30, tert-Butyl N-{4-[3-(6-Dibenzofuran-4-yl-pyrimidin-4-ylamino)-phenylcarbamoyl]-phenyl}-carbamate], 214 °C. Still for that read-out and setting: with `NCC(C(=O)Nc1ccc(Nc2cc(-c3cccc4c3oc3ccccc34)ncn2)cc1)c1ccc(Cl)c(Cl)c1.O=C(O)C(F)(F)F` (stereo not drawn) [Compound 75, 3-Amino-N-[4-(6-dibenzofuran-4-yl-pyrimidin-4-ylamino)-phenyl]-2-(3,4-dichloro-phenyl)-propionamide trifluoroacetate] the figure was 195 to 205 °C; with `NCCc1ccc(C(=O)Nc2ccc(Nc3cc(-c4cccc5c4oc4ccccc45)ncn3)cc2)cc1.O=C(O)C(F)(F)F` [Compound 55, 4-(2-Amino-ethyl)-N-[4-(6-dibenzofuran-4-yl-pyrimidin-4-ylamino)-phenyl]-benzamide trifluoroacetate], 202 °C; with `CC(C)(C)OC(=O)NCc1ccc(C(=O)Nc2cccc(Nc3cc(-c4cccc5c4oc4ccccc45)ncn3)c2)cc1` [Compound 25, tert-Butyl {4-[3-(6-dibenzofuran-4-yl-pyrimidin-4-ylamino)-phenylcarbamoyl]-benzyl}-carbamate], 233 to 236 °C. In turn, `CC(C)(C)OC(=O)N1CCCC(c2ccc(C(=O)Nc3ccc(Nc4cc(-c5cccc6c5oc5ccccc56)ncn4)cc3)cc2)C1` (stereo not drawn) [Compound 20, tert-Butyl 3-{4-[4-(6-Dibenzofuran-4-yl-pyrimidin-4-ylamino)-phenylcarbamoyl]-phenyl}-piperidin-1-carboxylate] displayed a melting point of 259 to 261 °C. Still for that read-out and setting: with `CC(C)(C)OC(=O)NCc1cccc(C(=O)Nc2cccc(Nc3cc(-c4cccc5c4oc4ccccc45)ncn3)c2)c1` [Compound 29, tert-Butyl N-{3-[3-(6-Dibenzofuran-4-yl-pyrimidin-4-ylamino)-phenylcarbamoyl]-benzyl}-carbamate] the figure was 216 to 219 °C; with `NCc1ccc(CC(=O)Nc2ccc(Nc3cc(-c4cccc5c4oc4ccccc45)ncn3)cc2)cc1.O=C(O)C(F)(F)F` [Compound 66, 2-(4-Aminomethyl-phenyl)-N-[4-(6-dibenzofuran-4-yl-pyrimidin-4-ylamino)-phenyl]-acetamide trifluoroacetate], 251 to 255 °C; with `CC(C)(C)OC(=O)Nc1ccccc1C(=O)Nc1ccc(Nc2cc(-c3cccc4c3oc3ccccc34)ncn2)cc1` [Compound 18, tert-Butyl N-{2-[4-(6-Dibenzofuran-4-yl-pyrimidin-4-ylamino)-phenylcarbamoyl]-phenyl}-carbamate], over 340 °C.
